Values of other authors, collected in US8729014B2, “Specific HCV NS3 protease inhibitors” (RFS Pharma, LLC, priority 2010, dated 2014).

Tested on: HepG2 cells
Details: HepG2 cells incubated with 10 μM; cited from earlier work

With O=c1[nH]c(=O)n([C@@H]2O[C@H](CO)[C@@H](O)[C@@H]2F)cc1I [fialuridine, 1,2′-deoxy-2′-fluoro-1-D-arabinofuranosly-5-iodo-uracil] as the compound, how does the “morphological changes in mitochondria (electron micrographs)” value read?
The value was “enlarged mitochondria with morphological changes consistent with mitochondrial dysfunction”.
